Data reported in ChEMBL document CHEMBL1201862, “PubChem BioAssay data set” (2004).
Active and inactive are the calls of the source.

Columns and labels:
[1] = target: Melanocortin receptor 4 (Homo sapiens, UniProt P32245); assay type: functional, cell-based;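 also: Cell-based assay with luminescence read-out, confirmatory dose-response testing for agonist activity of biased ligands at MC4R; human U2OS cells with tagged receptor and beta-arrestin; potency of agonists that increase receptor coupling to beta-arrestin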
[2] = viability of uninfected HEp-2 cells – cell-based, HTS, cytotoxicity control for RSV inhibitor project, dose response (AID 2410); assay type: functional; details: human respiratory syncytial virus
[3] = target: T1, Short transient receptor potential channel 4 (Mus musculus, UniProt Q9QUQ5); assay: block of DAMGO-driven TRPC4 calcium entry – cell-based, HEK293 TRPC4/mu-opioid, Fluo-4 calcium, dose response (AID 434942); assay type: functional;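 also: potency of inhibitors blocking the TRPC4 calcium response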
T1 sequence (Q9QUQ5 whole entry): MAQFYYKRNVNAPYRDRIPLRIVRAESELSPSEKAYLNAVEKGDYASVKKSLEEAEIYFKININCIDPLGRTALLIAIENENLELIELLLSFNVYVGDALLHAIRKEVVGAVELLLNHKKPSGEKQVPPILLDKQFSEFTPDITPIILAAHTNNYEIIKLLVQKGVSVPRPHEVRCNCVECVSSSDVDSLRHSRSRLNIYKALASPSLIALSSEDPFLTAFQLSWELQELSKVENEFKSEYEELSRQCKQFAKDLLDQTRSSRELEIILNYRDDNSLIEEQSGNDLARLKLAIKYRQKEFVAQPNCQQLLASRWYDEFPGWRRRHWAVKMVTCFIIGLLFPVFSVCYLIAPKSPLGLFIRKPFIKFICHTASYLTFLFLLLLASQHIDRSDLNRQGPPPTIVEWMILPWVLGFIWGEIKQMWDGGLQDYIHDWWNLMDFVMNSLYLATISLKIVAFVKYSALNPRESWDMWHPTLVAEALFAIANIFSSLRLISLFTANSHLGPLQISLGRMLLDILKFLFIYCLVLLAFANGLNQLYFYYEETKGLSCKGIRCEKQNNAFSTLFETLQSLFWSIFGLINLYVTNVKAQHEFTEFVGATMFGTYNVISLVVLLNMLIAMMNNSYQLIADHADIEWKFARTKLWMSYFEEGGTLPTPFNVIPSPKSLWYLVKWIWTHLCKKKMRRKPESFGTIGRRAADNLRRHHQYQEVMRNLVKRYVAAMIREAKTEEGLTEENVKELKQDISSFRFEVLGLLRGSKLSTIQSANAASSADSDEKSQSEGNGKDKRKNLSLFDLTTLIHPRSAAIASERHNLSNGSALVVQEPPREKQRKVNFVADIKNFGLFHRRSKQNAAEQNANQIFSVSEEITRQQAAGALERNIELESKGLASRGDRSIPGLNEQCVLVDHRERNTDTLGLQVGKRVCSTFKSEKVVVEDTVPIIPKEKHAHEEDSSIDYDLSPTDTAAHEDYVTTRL

[4] = tested on: Streptococcus sp. 'group A'; assay: Streptococcus pyogenes SK(-)GAS viability under kanamycin – luminescence, BacTiterGlo, confirmation, counter-screen for streptokinase expression inhibitor project, dose response (AID 1900); assay type: functional, organism-based
[5] = tested on: Streptococcus; assay: GAS UMAA2166 growth inhibition – luminescence, BacTiterGlo, counter-screen for streptokinase expression inhibitor project, dose response (AID 1915); assay type: functional, organism-based;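 also: potency for reduction of bacterial viability or growth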
[6] = target: Serine/threonine-protein phosphatase PP1-alpha catalytic subunit (Homo sapiens, UniProt P62136); assay: inhibition of protein phosphatase 1 activity – biochemical, fluorescence, dose response (AID 2394)
[7] = tested on: BJ; assay: cells; assay type: functional, cell-based; details: Homo sapiens
[8] = target: Glucose-6-phosphate 1-dehydrogenase (Homo sapiens, UniProt P11413); assay: inhibition of Homo sapiens G6PD, dose series – biochemical, fluorescence, selectivity assay for P. falciparum G6PD inhibitor project, dose response (AID 504792); assay type: functional
[9] = target: T2, Rac GTPase-activating protein 1 (Homo sapiens, UniProt Q9H0H5); assay: blockers of MgcRacGAP-driven Rac1 GTP hydrolysis – biochemical, ADP Hunter fluorescence, primary and confirmatory, confirmation (AID 624330); assay type: functional
T2 sequence (Q9H0H5 whole entry): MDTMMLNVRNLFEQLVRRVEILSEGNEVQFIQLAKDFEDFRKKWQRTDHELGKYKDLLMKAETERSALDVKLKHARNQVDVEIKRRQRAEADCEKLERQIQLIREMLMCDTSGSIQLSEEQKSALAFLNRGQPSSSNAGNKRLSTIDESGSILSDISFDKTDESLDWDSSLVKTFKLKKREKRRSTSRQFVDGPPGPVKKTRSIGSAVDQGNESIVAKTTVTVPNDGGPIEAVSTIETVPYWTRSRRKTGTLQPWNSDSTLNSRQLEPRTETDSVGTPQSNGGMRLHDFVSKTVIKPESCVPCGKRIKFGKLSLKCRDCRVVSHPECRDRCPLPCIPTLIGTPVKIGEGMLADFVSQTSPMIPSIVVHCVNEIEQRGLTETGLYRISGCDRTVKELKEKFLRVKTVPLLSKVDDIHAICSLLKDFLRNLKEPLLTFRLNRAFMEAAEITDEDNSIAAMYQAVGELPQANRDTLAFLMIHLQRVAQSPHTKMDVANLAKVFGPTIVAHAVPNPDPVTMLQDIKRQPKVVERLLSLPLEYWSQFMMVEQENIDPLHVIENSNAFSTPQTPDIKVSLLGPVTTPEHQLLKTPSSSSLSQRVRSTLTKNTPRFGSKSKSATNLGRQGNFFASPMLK

[10] = DRD fibroblast viability loss – cell-based, non-viral oncogenic, luminescence, dose response (AID 1934); assay type: functional; details: Homo sapiens
[11] = general cell-killing toxicity readout – plate reader, dry powder samples, cytotoxicity control for PAX8 inhibitor project, dose response (AID 743021); assay type: functional, cell-based
[12] = tested on: BJ; assay: BJ-TERT fibroblast viability loss – cell-based, RAS-independent, luminescence, dose response (AID 1933); assay type: functional; details: Homo sapiens
[13] = target: Nonstructural protein 1 (Influenza A virus, UniProt Q194T2); assay type: functional, Influenza A virus (A/California/07/2009(H1N1))
[14] = viability loss in HeLa cells – cytotoxicity control for MgcRacGAP inhibitor project, dose response (AID 624300); assay type: functional
[15] = Luminescence Cell-Based Dose Retest to Confirm Inhibitors of Cancer Stem Cells. [Related pubchem assays (depositor defined):AID2717, AID2721]; assay type: functional; details: Homo sapiens
[16] = NIH3T3 cell viability loss – ATP luminescence, mouse fibroblasts, counter-screen, dose response (AID 2010); assay type: functional, cell-based;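 also: cells exposed to compound for about 90 hours before reading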
[17] = Trypanosoma cruzi growth suppression in host cells – NIH3T3 host cells, beta-gal luminescence, confirmation (AID 2044); assay type: functional, cell-based;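 also: intracellular parasites grown in NIH/3T3 mouse fibroblasts as host cells; luminescent beta-galactosidase reporter signal from transgenic T. cruzi replicating inside host cells; inhibitors lower the luminescence signal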
[18] = target: SUMO-activating enzyme (Homo sapiens, UniProt Q9UBT2); assay: blockers of UBC9-mediated SUMO conjugation – biochemical, AlphaScreen, SUMOylation inhibitor project, confirmation (AID 2018); assay type: functional
[19] = microbe, parasite or virus in culture; assay type: functional; details: Mycobacterium tuberculosis

Sequence of Glucose-6-phosphate 1-dehydrogenase (P11413 whole entry): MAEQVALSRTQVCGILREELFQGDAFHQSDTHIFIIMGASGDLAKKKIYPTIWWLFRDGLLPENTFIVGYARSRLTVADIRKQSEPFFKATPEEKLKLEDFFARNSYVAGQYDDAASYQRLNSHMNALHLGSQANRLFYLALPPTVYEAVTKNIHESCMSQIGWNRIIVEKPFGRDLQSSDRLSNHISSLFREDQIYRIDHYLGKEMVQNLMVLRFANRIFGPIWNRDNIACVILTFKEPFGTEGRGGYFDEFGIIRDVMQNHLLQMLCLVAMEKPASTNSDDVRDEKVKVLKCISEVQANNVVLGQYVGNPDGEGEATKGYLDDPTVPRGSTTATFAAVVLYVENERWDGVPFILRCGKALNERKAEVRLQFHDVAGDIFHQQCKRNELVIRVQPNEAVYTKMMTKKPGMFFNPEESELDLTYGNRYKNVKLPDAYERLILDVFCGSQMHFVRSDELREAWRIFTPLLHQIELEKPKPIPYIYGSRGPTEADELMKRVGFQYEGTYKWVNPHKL
Sequence of Nonstructural protein 1 (Q194T2 whole entry): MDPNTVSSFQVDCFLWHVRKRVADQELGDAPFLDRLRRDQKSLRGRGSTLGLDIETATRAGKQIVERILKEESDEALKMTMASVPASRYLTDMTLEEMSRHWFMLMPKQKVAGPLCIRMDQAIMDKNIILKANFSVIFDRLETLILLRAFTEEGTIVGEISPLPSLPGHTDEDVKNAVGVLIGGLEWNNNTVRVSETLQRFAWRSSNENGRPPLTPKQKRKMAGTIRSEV
Sequence of Serine/threonine-protein phosphatase PP1-alpha catalytic subunit (P62136 whole entry): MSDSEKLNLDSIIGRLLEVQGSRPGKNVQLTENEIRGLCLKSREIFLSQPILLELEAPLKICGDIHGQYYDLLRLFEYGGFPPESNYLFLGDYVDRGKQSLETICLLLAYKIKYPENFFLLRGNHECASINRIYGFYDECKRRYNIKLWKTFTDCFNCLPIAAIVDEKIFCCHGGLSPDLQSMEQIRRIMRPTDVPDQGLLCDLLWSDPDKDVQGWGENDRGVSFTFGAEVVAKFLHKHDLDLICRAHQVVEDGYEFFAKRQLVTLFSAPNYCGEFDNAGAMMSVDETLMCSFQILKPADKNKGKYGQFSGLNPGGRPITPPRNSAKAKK
Sequence of Melanocortin receptor 4 (P32245 whole entry): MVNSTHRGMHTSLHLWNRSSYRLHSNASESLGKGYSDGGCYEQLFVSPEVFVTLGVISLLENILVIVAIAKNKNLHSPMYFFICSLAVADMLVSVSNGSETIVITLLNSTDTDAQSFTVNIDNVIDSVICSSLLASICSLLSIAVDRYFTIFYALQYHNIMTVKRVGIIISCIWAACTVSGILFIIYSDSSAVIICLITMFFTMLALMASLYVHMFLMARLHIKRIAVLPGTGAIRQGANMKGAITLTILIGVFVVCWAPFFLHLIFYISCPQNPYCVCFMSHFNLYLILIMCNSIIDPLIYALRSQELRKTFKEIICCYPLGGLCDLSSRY
Sequence of SUMO-activating enzyme (Q9UBE0 whole entry): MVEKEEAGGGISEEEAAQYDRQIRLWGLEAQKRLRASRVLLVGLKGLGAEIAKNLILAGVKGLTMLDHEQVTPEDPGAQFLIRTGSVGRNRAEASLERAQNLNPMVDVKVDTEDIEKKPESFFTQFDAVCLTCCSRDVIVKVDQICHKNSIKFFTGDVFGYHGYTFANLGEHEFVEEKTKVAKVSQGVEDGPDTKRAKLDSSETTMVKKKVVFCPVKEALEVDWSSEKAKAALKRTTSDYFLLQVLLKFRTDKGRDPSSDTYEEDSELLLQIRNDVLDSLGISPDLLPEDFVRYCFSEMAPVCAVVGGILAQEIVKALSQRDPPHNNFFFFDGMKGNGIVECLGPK
Sequence of SUMO-activating enzyme (Q9UBT2 whole entry): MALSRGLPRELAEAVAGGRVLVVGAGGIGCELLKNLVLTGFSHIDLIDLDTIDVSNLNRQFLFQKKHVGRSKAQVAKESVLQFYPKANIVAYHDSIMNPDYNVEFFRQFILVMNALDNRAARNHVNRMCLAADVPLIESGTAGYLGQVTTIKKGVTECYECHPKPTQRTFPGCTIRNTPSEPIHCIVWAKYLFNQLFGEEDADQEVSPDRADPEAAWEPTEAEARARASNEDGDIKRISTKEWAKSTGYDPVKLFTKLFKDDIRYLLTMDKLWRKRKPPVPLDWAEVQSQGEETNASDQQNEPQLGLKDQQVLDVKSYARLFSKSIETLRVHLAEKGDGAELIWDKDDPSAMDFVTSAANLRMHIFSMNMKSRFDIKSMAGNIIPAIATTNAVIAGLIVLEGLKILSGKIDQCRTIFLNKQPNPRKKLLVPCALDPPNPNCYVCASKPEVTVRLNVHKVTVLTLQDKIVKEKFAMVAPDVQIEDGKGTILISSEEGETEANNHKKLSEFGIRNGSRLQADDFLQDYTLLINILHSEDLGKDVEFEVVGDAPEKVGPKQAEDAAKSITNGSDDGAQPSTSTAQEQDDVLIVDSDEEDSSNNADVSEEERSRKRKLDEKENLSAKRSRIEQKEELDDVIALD

## Cc1cccc(C)c1-n1cccc1/C=C1\SC(=S)N(c2cccc(C(=O)O)c2)C1=O
[1]
  EC50: > 89.2 µM (inactive)
[2]
  CC50: 12.8 µM (active)
[3]
  EC50: 3.35 µM (active)
[4]
  EC50: 2.07 µM (active)
[5]
  EC50: 8.78 µM (active)

## Oc1ccc(/C=N/Nc2cc(N3CCCC3)nc(N3CCCC3)n2)cc1
[6]
  IC50: > 67 µM (not active)

## COc1ccc(S(=O)(=O)/N=C2\C=C(Nc3ccc(O)cc3)C(=O)c3ccccc32)cc1
[7]
  EC50: 3.21 µM (inconclusive)
[8]
  IC50: > 80 µM (inactive)
[9]
  IC50: 50.7 µM (active)
[10]
  EC50: 2.89 µM (active)
[11]
  AC50: 7.4 µM (active)
[12]
  EC50: 1.53 µM (active)
[13]
  IC50: 8.09 µM (active)
[14]
  CC50: 2.15 µM (active)

## COc1ccc(/C=N/Nc2cc(N3CCCC3)nc(N3CCCC3)n2)cc1
[15]
  AC50: 3.71 µM (active)
[16]
  EC50: 8.97 µM (active)
[17]
  EC50: 1.71 µM (active)
[18]
  IC50: 0.68 µM (active)
[19]
  CC50: 20.3 µM (active)
